Reference: US6855730B2, “3-methylidenyl-2-indolinone modulators of protein kinase” (Sugen, Inc., priority 1998, dated 2005)

Molecular target: EGFR (Homo sapiens, UniProt P00533)
Assay: EGFR assay (cellular ELISA, NIH 3T3/C7 cells)
Assay type: cell-based
Set-up: expressed in transfected cells; host or cells: NIH 3T3/C7
Settings: read-out: cell EGF IC50
How it was run: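 NIH 3T3/C7 cells expressing human EGFR, serum-starved (0.5% serum) ~40 h, treated with compound (1:200 of 10 mg/ml DMSO stock, 1% DMSO) then stimulated 5 min with 25 nM EGF. Lysate EGFR captured by antibody and phosphotyrosine detected by anti-Ptyr ELISA (OD 410 nm); % inhibition after negative-control subtraction.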

Sequence of EGFR (P00533 25-1210): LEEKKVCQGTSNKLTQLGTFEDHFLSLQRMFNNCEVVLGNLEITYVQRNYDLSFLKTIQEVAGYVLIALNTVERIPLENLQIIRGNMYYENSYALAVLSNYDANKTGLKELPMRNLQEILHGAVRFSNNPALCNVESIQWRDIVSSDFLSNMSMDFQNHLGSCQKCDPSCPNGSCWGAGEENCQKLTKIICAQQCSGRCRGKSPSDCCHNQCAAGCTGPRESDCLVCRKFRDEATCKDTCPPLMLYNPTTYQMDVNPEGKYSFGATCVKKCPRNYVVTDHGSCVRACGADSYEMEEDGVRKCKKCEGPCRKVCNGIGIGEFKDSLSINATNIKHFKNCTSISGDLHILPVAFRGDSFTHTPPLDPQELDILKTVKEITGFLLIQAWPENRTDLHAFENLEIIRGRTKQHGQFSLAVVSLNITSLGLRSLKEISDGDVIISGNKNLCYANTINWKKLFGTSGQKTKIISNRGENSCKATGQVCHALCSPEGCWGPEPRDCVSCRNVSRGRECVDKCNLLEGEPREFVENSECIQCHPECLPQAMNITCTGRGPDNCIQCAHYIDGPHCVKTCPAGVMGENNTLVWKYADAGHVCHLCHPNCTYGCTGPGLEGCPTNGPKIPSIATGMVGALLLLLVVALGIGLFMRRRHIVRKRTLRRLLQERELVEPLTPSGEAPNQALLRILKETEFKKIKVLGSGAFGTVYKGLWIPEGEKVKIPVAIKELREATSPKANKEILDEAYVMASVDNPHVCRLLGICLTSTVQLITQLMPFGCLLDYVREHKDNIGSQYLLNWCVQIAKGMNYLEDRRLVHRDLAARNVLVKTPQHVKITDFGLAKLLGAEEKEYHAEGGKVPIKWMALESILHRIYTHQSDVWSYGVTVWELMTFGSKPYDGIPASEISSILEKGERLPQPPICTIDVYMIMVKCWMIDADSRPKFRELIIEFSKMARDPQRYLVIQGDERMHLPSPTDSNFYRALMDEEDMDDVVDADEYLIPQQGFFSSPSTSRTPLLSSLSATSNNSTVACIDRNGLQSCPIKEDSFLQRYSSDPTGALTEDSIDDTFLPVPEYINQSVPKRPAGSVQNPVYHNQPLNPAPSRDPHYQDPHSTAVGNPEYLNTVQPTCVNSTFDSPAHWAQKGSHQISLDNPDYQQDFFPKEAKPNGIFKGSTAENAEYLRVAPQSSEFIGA

| SMILES | IC50 |
| --- | --- |
| CCOC(=O)c1c(C)[nH]c(/C=C2\C(=O)Nc3ccc(Br)cc32)c1CCC(=O)O [Compound 114, 5-(5-Bromo-2-oxo-1,2-dihydroindol-3-ylidenemethyl)-4-(2-carboxyethyl)-2-methyl-1H-pyrrole-3-carboxylic acid ethyl ester] | > 100 µM |
| Cc1cc(CCC(=O)O)c(/C=C2\C(=O)Nc3ccc(Br)cc32)[nH]1 [Compound 116, 3-[2-(5-Bromo-2-oxo-1,2-dihydroindol-3-ylidenemethyl)-5-methyl-1H-pyrrol-3-yl]-propionic acid] | > 100 µM |
| COc1c(C(C)C)cc(/C=C2/C(=O)Nc3ccccc32)cc1C(C)C [Example 1, 3-(3,5-Diisopropyl-4-methoxybenzylidene)-1,3-dihydroindol-2-one] | 45.7 µM |
| COc1c(C(C)C)cc(/C=C2/C(=O)Nc3ccc(Cl)cc32)cc1C(C)C [Example 2, 5-Chloro-3-(3,5-diisopropyl-4-methoxybenzylidene)-1,3-dihydroindol-2-one] | > 100 µM |
| O=C1Nc2ccc(N=Cc3cc4ccccc4[nH]3)cc2C1=Cc1cc2ccccc2[nH]1 [Example 171, 3-(1H-indol-2-ylmethylene)-5-[(1H-indol-2-ylmethylene)-amino]-1,3-dihydroindol-2-one] | > 100 µM |
| NS(=O)(=O)c1ccc2c(c1)/C(=C/c1c[nH]c3ccccc13)C(=O)N2 [Example 172, 3-(1H-Indol-3-ylmethylene)-2-oxo-2,3-dihydro-1H-indole-5-sulfonic acid amide] | > 100 µM |
| CNS(=O)(=O)c1ccc2c(c1)/C(=C/c1cc3ccccc3[nH]1)C(=O)N2 [Example 173, 3-(1H-Indol-2-ylmethylene)-2-oxo-2,3-dihydro-1H-indole-5-sulfonic acid methylamide] | > 100 µM |
| O=C1Nc2ccc(C(=O)O)cc2/C1=C/c1c[nH]c2ccccc12 [Example 174, 3-(1H-Indol-3-ylmethylene)-2-oxo-2,3-dihydro-1H-indole-5-carboxylic acid] | > 100 µM |
| O=C1Nc2ccc(C(=O)O)cc2/C1=C/c1ccc2[nH]ccc2c1 [Example 177, 3-(1H-Indol-5-ylmethylene)-2-oxo-2,3-dihydro-1H-indole-5-carboxylic acid] | > 100 µM |
| Nc1ccc2c(c1)/C(=C/c1ccc3[nH]ccc3c1)C(=O)N2 [Example 179, 5-Amino-3-(1H-indol-5-ylmethylene)-1,3-dihydro-indol-2-one] | > 100 µM |
| Cc1c(/C=C2\C(=O)Nc3ccc(N)cc32)[nH]c2ccccc12 [Example 180, 5-Amino-3-(3-methyl-1H-indol-2-ylmethylene)-1,3-dihydroindol-2-one] | > 100 µM |
| Cc1[nH]c2ccccc2c1/C=C1\C(=O)Nc2ccc(C(=O)O)cc21 [Example 182, 3-(2-Methyl-1H-indol-3-ylmethylene)-2-oxo-2,3-dihydro-1H-indole-5-carboxylic acid] | > 100 µM |
| Cc1[nH]c2ccccc2c1/C=C1\C(=O)Nc2ccc(N)cc21 [Example 187, 5-Amino-3-(2-methyl-1H-indol-3-ylmethylene)-1,3-dihydroindol-2-one] | > 100 µM |
| O=C(O)CCc1c(/C=C2\C(=O)Nc3ccc(Cl)cc32)[nH]c2c1CCCC2 [Example 191, 3-[2-(5-Chloro-2-oxo-1,2-dihydroindol-3-ylidenemethyl)-4,5,6,7-tetrahydro-1H-indol-3-yl]-propionic acid] | > 100 µM |
| O=C(O)CCc1c(/C=C2\C(=O)Nc3cc(Cl)ccc32)[nH]c2c1CCCC2 [Example 195, 3-[2-(6-Chloro-2-oxo-1,2-dihydroindol-3-ylidenemethyl)-4,5,6,7-tetrahydro-1H-indol-3-yl]-propionic acid] | > 100 µM |
| Cc1c[nH]c(/C=C2\C(=O)Nc3ccccc32)c1CCC(=O)O [Example 215, 3-[4-Methyl-2-(2-oxo-1,2-dihydroindol-3-ylidenemethyl)-1H-pyrrol-3-yl]-propionic acid] | > 100 µM |
| Cc1c[nH]c(C=C2C(=O)Nc3cc(Cl)ccc32)c1CCC(=O)O [Example 219, 3-[2-(6-Chloro-2-oxo-1,2-dihydroindol-3-ylidenemethyl)-4-methyl-1H-pyrrol-3-yl]-propionic acid] | > 100 µM |

More lines, now with the values ahead:

| IC50 | SMILES |
| --- | --- |
| > 100 µM | CN(C)C(=O)CCc1c(/C=C2\C(=O)Nc3ccccc32)[nH]c2c1CCCC2 [Example 197, N,N-Dimethyl-3-[2-(2-oxo-1,2-dihydroindol-3-ylidenemethyl)-4,5,6,7-tetrahydro-1H-indol-3-yl]-propionamide] |
| > 100 µM | CN(C)CCCc1c(/C=C2\C(=O)Nc3ccccc32)[nH]c2c1CCCC2 [Example 198, 3-[3-(3-Dimethylaminopropyl)-4,5,6,7-tetrahydro-1H-indol-2-ylmethylene]-1,3-dihydroindol-2-one] |
| > 100 µM | NC(=O)CCc1c(/C=C2\C(=O)Nc3ccccc32)[nH]c2c1CCCC2 [Example 199, 3-[2-(2-Oxo-1,2-dihydroindol-3-ylidenemethyl)-4,5,6,7-tetrahydro-1H-indol-3-yl]-propionamide] |
| > 100 µM | O=C1Nc2ccccc2/C1=C/c1[nH]c2c(c1CCC(=O)N1CCOCC1)CCCC2 [Example 200, 3-[3-(3-Morpholin-4-yl-3-oxopropyl)-4,5,6,7-tetrahydro-1H-indol-2-ylmethylene]-1,3-dihydroindol-2-one] |
| > 100 µM | CNC(=O)CCc1c(/C=C2\C(=O)Nc3ccccc32)[nH]c2c1CCCC2 [Example 201, N-Methyl-3-[2-(2-oxo-1,2-dihydroindol-3-ylidenemethyl)-4,5,6,7-tetrahydro-1H-indol-3-yl]-propionamide] |
| > 100 µM | O=C(CCc1c(/C=C2\C(=O)Nc3ccccc32)[nH]c2c1CCCC2)NCCN1CCOCC1 [Example 202, N-(2-Morpholin-4-ylethyl)-3-[2-(2-oxo-1,2-dihydroindol-3-ylidenemethyl)-4,5,6,7-tetrahydro-1H-indol-3-yl]-propionamide] |
| > 12.5 µM | O=C(O)CCc1c(/C=C2\C(=O)Nc3ncccc32)[nH]c2c1CCCC2 [Example 203, 3-[2-(2-Oxo-1,2-dihydropyrrolo[2,3-b]pyridin-3-ylidenemethyl)-4,5,6,7-tetrahydro-1H-indol-3-yl]-propionic acid] |
| > 100 µM | COc1cccc(-c2ccc3c(c2)NC(=O)/C3=C\c2[nH]c3c(c2CCC(=O)O)CCCC3)c1 [Example 204, 3-{2-[6-(3-Methoxyphenyl)-2-oxo-1,2-dihydro-indol-3-ylidenemethyl]-4,5,6,7-tetrahydro-1H-indol-3-yl}-propionic acid] |
| > 100 µM | CC(C)NS(=O)(=O)c1ccc2c(c1)C(=Cc1[nH]c3c(c1CCC(=O)O)CCCC3)C(=O)N2 [Example 208, 3-[2-(5-Isopropylaminosulfonyl-2-oxo-1,2-dihydroindol-3-ylidenemethyl)-4,5,6,7-tetrahydro-1H-indol-3-yl]-propionic acid] |
| > 100 µM | O=C(O)CCc1ccccc1/C=C1/C(=O)Nc2ccccc21 [Example 214, 3-[2-(2-Oxo-1,2-dihydroindol-3-ylidenemethyl)-phenyl]-propionic acid] |
| > 100 µM | Cc1c[nH]c(/C=C2\C(=O)Nc3ccc(Cl)cc32)c1CCC(=O)O [Example 216, 3-[2-(5-Chloro-2-oxo-1,2-dihydroindol-3-ylidenemethyl)-4-methyl-1H-pyrrol-3-yl]-propionic acid] |
| > 100 µM | COc1ccc2c(c1)NC(=O)/C2=C\c1[nH]cc(C)c1CCC(=O)O [Example 217, 3-[2-(6-Methoxy-2-oxo-1,2-dihydroindol-3-ylidenemethyl)-4-methyl-1H-pyrrol-3-yl]-propionic acid] |
| > 100 µM | COc1ccc2c(c1)/C(=C/c1[nH]cc(C)c1CCC(=O)O)C(=O)N2 [Example 222, 3-[2-(5-Methoxy-2-oxo-1,2-dihydroindol-3-ylidenemethyl)-4-methyl-1H-pyrrol-3-yl]-propionic acid] |
